What was measured:
[1] = tested on: Arabidopsis thaliana third true leaf; assay: Ploidy analysis of leaf 3 by flow cytometry (endoreduplication onset); assay type: in vivo; settings: transfer at 9 DAS to 25 mM mannitol or 5 μM ACC
Experimental: Arabidopsis seedlings were germinated and grown on nylon meshes overlaying control medium until 9 days after stratification (DAS), when the third true leaf is fully proliferating (Skirycz et al., 2010), and subsequently transferred to control or mannitol-containing medium (FIGS. 1A to 10). Kinematic analysis was performed, whereby leaves were harvested daily throughout development of leaf 3 (9-20 DAS) and based on drawings of the abaxial epidermis cell number, cell area, number of guard cells and cell division and cell expansion rates were calculated (De Veylder et al., 2001). […] Leaf and plant morphology were not altered by mannitol (FIG. 2C). Cell expansion was also affected by stress and the reduced final leaf area was a combination of fewer and smaller cells (FIG. 2D). The stomatal index, which represents the number of stomata as a fraction of the total number of cells, was reduced as well (FIG. 2E). To learn more about the mechanisms underlying the rapid reduction of cell division upon stress onset, we harvested leaf samples daily after transfer. […]
For flow cytometry analysis, nuclei were extracted by chopping 4-32 leaves with a razor blade in 1 ml of 45 mM MgCl2, 30 mM sodium citrate, 20 mM 3-(N-morpholino)propanesulfonic acid, pH 7, and 1% Triton X-100 (Galbraith et al., 1983). […] The nuclei were analyzed with a CyFlow flow cytometer with the FloMax Software (Partec).

CDKA = CDKA activity assay on protein extracted from proliferating third leaves; assay type: in vivo, Arabidopsis thaliana; settings: wild type; 10 and 24 h after transfer to 25 mM mannitol or 5 μM ACC
Experimental: At 9 DAS, when the third leaf is fully proliferating, seedlings were transferred to plates containing control medium or medium supplemented with 25 mM mannitol (Sigma-Aldrich) or 5 μM ACC (Sigma-Aldrich) by gently lifting the nylon mesh with forceps. For the CDKA activity assay the transfer was done at 11 DAS; at this stage, the third leaf is still dividing and can be quickly harvested without the need for RNAlater solution (see below) that would inhibit CDKA activity. All transfers were performed 2-3 h into the day.
Total soluble protein was extracted from 50 leaves by adding extraction buffer (Van Leene et al., 2007) to ground samples, followed by two freeze-thaw steps and two centrifugation steps (20,817 g, 10 min, 4° C.), whereby the supernatant was collected each time. Equal amounts of total protein were incubated with p9^CKS1Hs-sepharose beads (De Veylder et al., 1997) and kinase assays were performed as described (De Veylder et al., 1997) with histone H1 as CDK substrate. To correct for the amount of CDKA protein purified by p9^CKS1Hs-sepharose beads, an aliquot of each sample was used for protein gel blot analysis with primary rabbit anti-PSTAIRE antibodies (Santa Cruz) (diluted 1:5000) and a secondary horseradish peroxidase-conjugated donkey anti-rabbit antibodies (GE-Healthcare) (diluted 1:10,000). Proteins were detected by chemiluminescence (Western Lightning Plus ECL, PerkinElmer Life Sciences). CDK activity and CDKA amount were quantified with ImageJ v1.41o. Control samples were arbitrarily set at 100%.

[2] = tested on: Arabidopsis thaliana leaf 3; assay: Leaf 3 area of ACC deaminase transgenic lines and wild type after 48 hours on mild mannitol stress; assay type: in vivo; settings: wild type of the pGRF5::bACD experiment; 48 hours on 25 mM mannitol
Excerpt: In this experiment we aimed for a downregulation of the ethylene signaling pathway only in proliferating leaf cells (chimeric genes with 2 different meristematic promoters: p4TM1 and pGR5) as compared to a downregulation of the ethylene signaling in the entire plant (chimeric gene with the […] promoter). The transgene which was used for downregulation of the ethylene signaling was the ACC deaminase (a bacterial form and a plant form), an enzyme that degrades the ethylene precursor ACC. […]
Plant were transferred to plates containing 25 mM mannitol, hereby exposing them to mild mannitol stress, at a stage where the third leaf is fully proliferating, allowing to study the response of proliferating leaf cells to stress. After 48 hours on mild mannitol stress, leaf 3 was microdissected and its size was measured to calculate the extent of growth inhibition. […]
The plant growth and stress set-up was the same as previously described (Skirycz et al (2011) Plant Cell 23: 1876-1888). […] Slides were photographed, and leaf area was measured using ImageJ 1.41o.

`OC[C@@H](O)[C@@H](O)[C@H](O)[C@H](O)CO` [mannitol] was tested. Which endoreduplication onset [1] did it give?
The endoreduplication onset was “faster onset of endoreduplication”.

And the CDKA activity (CDKA)?
The CDKA activity was “decreased as early as 10 h after stress onset and remained low at 24 h”.

And the “growth inhibition of leaf 3 area” value [2]?
The value was “about 10%”.

Reference: patent US20140130208A1, “METHODS AND MEANS TO PRODUCE ABIOTIC STRESS TOLERANT PLANTS” (VIB VZW, priority 2011, published 2014)
